From publication PMC6385020 (Molecules, 2019)

Key:
[1] = system: A2780cis cisplatin-resistant ovarian cancer cell line; test: Cell growth (proliferation), 96 h treatment; assay type: cell-based, human; details: 96 h treatment; for IC50: A2780cis
Method: (§1) The ovarian carcinoma cell lines and human normal lung cells were purchased from ATCC and were grown in complete RPMI medium (ovarian) and DMEM (human lung cells) supplemented with 10% fetal calf serum, in the presence of penicillin, streptomycin. The resistance of A2780cis cells to cisplatin was maintained by monthly treatment with 1 µM cisplatin for 4 days. Concentrated stock solutions of complexes were conserved at −20 °C (DMSO/Water) and freshly diluted in water just before the experiments. Cells were treated with various concentrations of platinum complexes at 37 °C under humidity and 5% CO2 conditions for 96 h. Cellular growth was quantified using the particle counter MOXI (VWR).

[2] = system: A2780 ovarian cancer cell line; test: Cell growth (proliferation), 96 h treatment; assay type: cell-based, human; details: A2780, 96 h treatment
Method: as §1

[3] = system: CCD19Lu normal lung cell line; test: Cell growth (proliferation), 96 h treatment; assay type: cell-based, human
Method: as §1

[4] = system: c-myc G4 DNA; test: Platination of c-myc followed by denaturing gel electrophoresis; assay type: biochemical; details: for platination of c-myc during melting temperature experiments: 0.2 µM c-myc, 1 µM complex, 25 to 95 °C gradient, K+1 buffer; for selectivity of platination, c-myc G4 vs duplex ds26 (competition kinetics): c-myc 0.2 µM, ds26 10 µM; for platination products on gel electrophoresis: c-myc 100 µM, 18 h at 32 °C, K+100 buffer
Method: The five platinum complexes were incubated for 18 h at 32 °C with pre-folded 5’-end ^32P radiolabeled c-myc DNA (10 or 100 µM) and loaded on denaturing polyacrylamide gel electrophoresis (Figure 4).
Two main accelerated bands (A1 and A2) were detected for Pt-ttpy and three were detected for Pt-tpy (B1, B2, and B3) in the presence of 10 µM of DNA. However, for Pt-BisQ, two accelerated bands (C1 and C2) and one retarded band (C3) were only detected at higher DNA concentration (100 µM). It is noteworthy that c-myc platination products migrate faster that the non-platinated G4, resulting in a stark contrast if compared to 22AG in which platination products migrate slower (Figure 2): this is due to the presence of the still folded G4 structures that resist to denaturation, as already found. […] The platination sites of Pt-ttpy, Pt-tpy, and Pt-BisQ were determined by 3’-exonuclease digestion, which stops at the platinated base, followed by a de-platination treatment of the digested fragments with NaCN (Figures S6 and S7). The exact length of the digested de-platinated fragment was deduced from its migration compared with the one of a digestion ladder of the c-myc sequence on a denaturating gel electrophoresis.
The oligonucleotides were 5’-end-labelled using a polynucleotide kinase and (γ^32P)-ATP (Perkin Helmer). The reaction products were purified by electrophoresis on 20% denaturing gel. Sample platinations were prepared by folding a mixture of 5’-end-radiolabeled DNA and 10 µM or 100 µM of non-radiolabeled material in 100 mM KClO4 or 100 mM KCl solution except for the platination reaction in the denaturing temperature conditions. The folding was achieved by heating the samples at 90 °C for 5 min, followed by slow cooling to room temperature over the course of 2 h to induce the formation of the quadruplex structure. It was then incubated with platinum complexes, and platinated products were separated by electrophoresis on 15% denaturing gel. They were then eluted from gel, precipitated, treated by 3’-exonuclease at 37 °C for 30 min, and loaded on a 20% denaturing gel. The digested fragments were eluted from this gel precipitated, treated over night by NaCN 0.2M, precipitated, and loaded once again on a 20% denaturing gel. Gels were scanned using a STORM860 (Molecular Dynamics).

[5] = system: CEB25-WT minisatellite sequence G4; test: PhenDV G4-FID assay; assay type: binding; details: PhenDV 1.5 eq, K+100 buffer
Method: (§2) For the G4-FID assay, the oligonucleotides were dissolved in K^+100 buffer (10 mM lithium cacodylate buffer pH 7.3, 100 mM KCl, 1% DMSO). Oligonucleotide concentrations were determined on the basis of their absorbance at 260 nm. For the fluorimetric titration, the oligonucleotides were dissolved in K^+100 buffer without DMSO. For the FRET-melting assay, the oligonucleotides were dissolved in K^+1 buffer (10 mM lithium cacodylate buffer pH 7.3, 1 mM KCl, 99 mM LiCl) except for F-21-T. F-21-T was dissolved in K^+10 buffer (10 mM lithium cacodylate buffer pH 7.3, 10 mM KCl, 90 mM LiCl).
(§3) Prior to use, all oligonucleotides were pretreated by heating at 95 °C for 5 min, then rapidly cooled to 4 °C to favor the intramolecular folding by kinetic trapping. Duplex-DNA ds26 was prepared by heating the self-complementary strand at 90 °C for 5 min in K^+1 buffer followed by a slow cooling over 6 h.
(§4) Each G4-FID assay was performed in a 96-well Non-Binding Surface black with black bottom polystyrene microplates (Corning). Every ligand was tested on a line of the microplate, in duplicate. The microplate was filled with (a) K^+100 solution (qs for 200 μL), (b) 10 μL of a solution of pre-folded oligonucleotides (5 μM) and fluorescent probe (TO/TO-PRO-3 (10 μM—2 eq) or PhenDV (7,5 µM—1.5 eq)), and (c) an extemporaneously prepared 5 μM ligand solution in K^+100 buffer (0 to 100 μL) along the line of the microplate, i.e., from column A to column H: 0, 0.125, 0.25, 0.375, 0.5, 0.625, 0.75, 1.0, 1.25, 1.5, 2.0, and 2.5 μM. After 5 min of orbital shaking at 500 rpm, fluorescence is measured using the following experimental parameters: positioning delay of 0.5 s, 20 flashes per well, emission/excitation filters for TO at 485/520, TO-PRO-3 at 620/670, and PhenDV at 355/520 gain adjusted at 80% of the fluorescence from the most fluorescent well (i.e., a well from column A for TO and a well from column H).
(§5) In the case of PhenDV, the fluorescence of the unbound probe is not negligible. The percentage of displacement becomes (2) % PhenDV Displacement=F−F0/Fligand+probe−F0
(§6) The PhenDV displacement is calculated from the fluorescence intensity F; F(ligand+probe), which refers to the fluorescence of the probe in presence of the ligand (without G4); and F0, which is the fluorescence without added ligand. The term F(ligand+probe) is necessary as the ligand can quench the fluorescence of the probe. The percentage of displacement is then plotted as a function of the concentration of the added ligand. The DNA affinity was evaluated by the concentration of ligand required to decrease the fluorescence of the probe by 50%, was noted DC50, and was determined after non-linear fitting of the displacement curve.

[6] = system: 22AG human telomeric sequence G4; test: PhenDV G4-FID assay; assay type: binding; details: PhenDV 1.5 eq, K+100 buffer
Method: as §2, §3, §4, §5, §6

[7] = system: c-myc G4; test: PhenDV G4-FID assay; assay type: binding; details: PhenDV 1.5 eq, K+100 buffer
Method: as §2, §3, §4, §5, §6

[8] = system: 21CTA human telomeric sequence variant G4; assay type: binding; details: PhenDV 1.5 eq, K+100 buffer
Method: as §2, §3, §4, §5, §6

[9] = system: c-myc (myc22) (DNA, G4) TGAGGGTGGGTAGGGTGGGTAA; test: G4-FID, thiazole orange displacement; details: 100 mM KCl; 10 mM lithium cacodylate pH 7.3, 1% DMSO; thiazole orange displaced; 1 µM compound, 0.25 µM DNA

Row | SMILES | Resistance Factor (IC50ratio A2780cis/A2780) [1] | IC50 [1] [nM] | IC50 [2] [nM] | IC50 [3] [nM] | platination of c-myc during melting temperature experiments [4] | selectivity of platination, c-myc G4 vs duplex ds26 (competition kinetics) ([4]; K+10 buffer) | % of PhenDV displacement at 1 µM of ligand [5] [%] | % of PhenDV displacement at 1 µM of ligand [6] [%] | % of PhenDV displacement at 1 µM of ligand [7] [%] | % of PhenDV displacement at 1 µM of ligand [8] [%] | platination products on gel electrophoresis [4] | incubation time to metallate a large amount of c-myc* ([4]; c-myc* 0.2 µM, K+10 buffer, 25 °C) [min] | % TO displacement [9] [%]
1 | [Cl-].[Cl][Pt+].c1ccc(-c2cccc(-c3ccccn3)n2)nc1 [Pt-tpy] | 1.6 | 5000 | 3000 | 3000 | clearly platinate | low binding selectivity | 13 | 24 | 5 | 35 | – | – | –
2 | CN(C)c1ccc(/C=C/c2cc(-c3ccccn3)nc(-c3ccccn3)n2)cc1.[Cl-].[Cl][Pt+] [Pt-vpym, Chloro-(E)-4-(2-(2,6-di(pyridin-2-yl)pyrimidin-4-yl)vinyl)-N,N-dimethylaniline-platinum(II) Chloride] | 0.6 | 400 | 700 | 700 | – | – | – | – | – | – | Non-defined platination products | – | –
3 | Cc1ccc(-c2cc(-c3ccccn3)nc(-c3ccccn3)c2)cc1.[Cl-].[Cl][Pt+] [Pt-ttpy] | 1.0 | 2500 | 2500 | 1750 | clearly platinate | high selectivity | 45 | 63 | 22 | 90 | – | ≤ 120 | > 80
4 | [Cl-].[Cl][Pt+].c1ccc(-c2cc(-c3ccc(OCCN4CCCC4)cc3)nc(-c3ccccn3)n2)nc1 [Pt-cpym, Chloro-(2,4-di(pyridin-2-yl)-6-(4-(2-(pyrrolidin-1-yl)ethoxy)phenyl)pyrimidine)-platinum(II) Chloride] | 1.3 | 5000 | 3800 | 1800 | – | – | 33 | 43 | 3 | 72 | Non-defined platination products | – | < 60
5 | CN(C)CCCNCc1ccc(-c2cc(-c3ccccn3)nc(-c3ccccn3)c2)cc1.[Cl-].[Cl][Pt+] [Pt-ctpy] | 1.1 | 5000 | 4600 | 5200 | – | – | 72 | 84 | 29 | 100 | Non-defined platination products | – | > 80
